# According to BindingDB's records for doi:10.7270/Q20K2778 (The Scripps Research Institute Molecular Screening Center, 2013):
# Target: Methyl-CpG-binding domain protein 2 (Homo sapiens, UniProt Q9UBB5)
# Assay: MBD2-DBD methyl-oligonucleotide interaction blockers – biochemical, 5-meCpG oligonucleotide, dose response (AID 720645)
# Chain of Methyl-CpG-binding domain protein 2 (Q9UBB5 whole entry, the tested form may be a part): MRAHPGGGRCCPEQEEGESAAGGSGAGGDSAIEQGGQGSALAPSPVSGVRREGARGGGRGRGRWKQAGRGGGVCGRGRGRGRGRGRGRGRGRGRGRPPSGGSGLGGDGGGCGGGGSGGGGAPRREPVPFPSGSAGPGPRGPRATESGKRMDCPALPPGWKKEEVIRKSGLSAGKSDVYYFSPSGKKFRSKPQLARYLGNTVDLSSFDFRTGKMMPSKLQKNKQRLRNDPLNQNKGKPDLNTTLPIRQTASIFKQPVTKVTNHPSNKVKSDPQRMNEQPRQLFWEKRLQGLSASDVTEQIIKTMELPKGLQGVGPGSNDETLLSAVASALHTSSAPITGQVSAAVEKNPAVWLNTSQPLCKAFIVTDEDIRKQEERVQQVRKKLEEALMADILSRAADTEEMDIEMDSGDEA
row,IC50,Compound
1,4.78 µM,"COc1ccc(-c2csc(/C(C#N)=C/C3C=CC(=O)C([N+](=O)[O-])=C3)n2)cc1OC (centres undefined) [(E)-2-[4-(3,4-Dimethoxy-phenyl)-thiazol-2-yl]-3-(4-hydroxy-3-nitro-phenyl)-acrylonitrile]"
2,8.02 µM,Cc1ccc2c(Cl)c(Cc3ccccc3)c(=S)[nH]c2n1 [MLS001182542]
3,43.8 µM,"COc1cc(C(c2c(C)[nH][nH]c2=O)c2c(C)[nH][nH]c2=O)cc([N+](=O)[O-])c1O [4-[(3-methoxy-5-nitro-4-oxidanyl-phenyl)-(3-methyl-5-oxidanylidene-1,2-dihydropyrazol-4-yl)methyl]-5-methyl-1,2-dihydropyrazol-3-one]"
4,4.87 µM,O=C(O)CSc1cc(NS(=O)(=O)c2ccc(Cl)cc2)c2ccccc2c1O [2-[4-[(4-chlorophenyl)sulfonylamino]-1-hydroxynaphthalen-2-yl]sulfanylacetic acid]
